Results from patent publication US9216964B2, “Hedgehog pathway modulators” (Novartis AG, priority 2008, dated 2015).

Test system: hedgehog signaling pathway
Test: Gli-Luc Reporter Assay for Hh Pathway Inhibition (TMHh-12 cells, pTA-8×Gli-Luc reporter)
Format: cell-based, Mouse
Settings: Mus musculus, TMHh12, Ag1.5 1 nM; read-out: Hedgehog Inhibition IC50 (nM) (Ag1.5 1 nM)
Procedure: Compounds of the present invention are assayed to evaluate their capacity to inhibit the hedgehog signaling pathway.
Gli-Luc Reporter Assay for Hh Pathway Inhibition
Mouse TM3 cells (obtained from American Type Culture Collection, ATCC, Manassas, Va.) are cultured in DMEM/F12 medium (Gibco/Invitrogen, Carlsbad, Calif.) supplemented with 5% heat inactivated horse serum and 2.5% FBS (Gibco/Invitrogen, Carlsbad, Calif.), 50 unit/mL penicillin and 50 μg/mL of streptomycin (Gibco/Invitrogen, Carlsbad, Calif.) at […] with 5% CO2 in air atmosphere. TM3 cells were transfected with pTA-8×Gli-Luc reporter plasmid. A stably transfected clone termed TMHh-12 was selected. […] To evaluate the IC50s of the antagonists, 8000 TMHh-12 cells were plated into each wells in 384-well plates with 50% DMEM/F12 medium supplemented with 2% FBS. After 12 hours, Hh pathway is activated by adding recombinant mouse Shh protein (expressed in E. coli, 8 μg/mL) or by adding Smo agonists. The testing compounds are added into plates with different concentrations. After 48 hours, the firefly luciferase luciferase activities are assayed with the Bright-Glo™ Luciferase Assay System (Promega, Madison, Wis.). The IC50 is measured when the effect of the compound reduces the luminescence signal by 50%. Toxicity of these compounds are evaluated in TM3 cells using CellTiter Glo assays or by TM3-Luc cell line (a TM3 cell stably transfected with a constitutive luciferase expression vector).

Structure (SMILES)	IC50 [nM]
Clc1ccc(Nc2cccc3c2CCNC3)cc1-c1ncc(-c2ccccc2)[nH]1 [Compound 57]	22.7
Cc1ccc(Nc2cccc3c2CCN(S(C)(=O)=O)C3)cc1-c1cc2ccccc2cn1 [Compound 229]	0.3
CC1(C(=O)N2CCc3c(cccc3Nc3ccc(Cl)c(-c4ncc(-c5ccccc5)[nH]4)c3)C2)CC1 [Compound 73]	0.5

Next, values leading:

IC50 [nM]	Structure (SMILES)
1.1	Cc1ccc(Nc2cccc3c2CCN(S(C)(=O)=O)C3)cc1C(=O)Nc1ccc(OC(F)(F)F)cc1 [Compound 187]
59	Cc1ccc(Nc2cccc3c2CCN(S(C)(=O)=O)C3)cc1-c1nc2cnc(N(C)C)cc2[nH]1 [Compound 103]
2.1	Cc1ccc(Nc2cccc3c2CCN(S(C)(=O)=O)C3)cc1C(=O)Nc1ccccn1 [Compound 162]
4180	CNC(=O)c1cccc(-c2cc(Nc3cccc4c3CCN(S(C)(=O)=O)C4)ccc2C)c1 [Compound 135]
0.4	Cc1ccc(Nc2cccc3c2CCN(S(C)(=O)=O)C3)cc1C(=O)Nc1ccc(F)cc1 [Compound 185]

Same assay, conditions: Mus musculus, TMHh12, enzymatic and cellular assays for the inhibition of hedgehog signaling pathways; read-out: IC50 Ranges

Structure (SMILES)	IC50 [nM]
COc1ccc(-c2cc(Nc3cccc4c3CCN(CCS(C)(=O)=O)C4)ccc2C)nn1 [Compound 258]	1 to 10
Cc1ccc(Nc2cccc3c2CCN(S(C)(=O)=O)C3)cc1-c1cnn(C)c1 [Compound 128]	100 to 1000
Cc1ccc(Nc2cccc3c2CCN(S(C)(=O)=O)C3)cc1-c1ccc(C(C)C)cc1 [Compound 117]	100 to 1000
Cc1ccc(Nc2cccc3c2CCN(C2CCS(=O)(=O)C2)C3)cc1-c1ncc(F)cc1F (stereo not drawn) [Compound 326]	0.001 to 1
Clc1ccc(Nc2cccc3c2CCNC3)cc1-c1ncc(-c2ccccc2)[nH]1 [Compound 57]	10 to 100
Cc1ccc(Nc2cccc3c2CCN(C2CCS(=O)(=O)C2)C3)cc1-c1ccc(F)cn1 (stereo not drawn) [Compound 250]	0.001 to 1
Cc1ccc(-c2cnc(-c3cc(Nc4cccc5c4CCN(S(C)(=O)=O)C5)ccc3C)[nH]2)cn1 [Compound 91]	1 to 10
Clc1ccc(Nc2ccc3c(c2)CN(C2CCOCC2)CC3)cc1-c1nc(-c2ccccc2)c[nH]1 [Compound 346]	10 to 100
Cc1ccc(Nc2cccc3c2CCN(S(C)(=O)=O)C3)cc1-c1ccc(Cl)cn1 [Compound 173]	0.001 to 1
COc1ccc(-c2cc(Nc3cccc4c3CCN(S(C)(=O)=O)C4)ccc2C)cn1 [Compound 98]	10 to 100
Cc1cnc(-c2cc(Nc3cccc4c3CCN(CCS(C)(=O)=O)C4)ccc2C)nc1 [Compound 263]	100 to 1000
Cc1ccc(Nc2cccc3c2CCN(S(C)(=O)=O)C3)cc1-c1ccc(F)cc1 [Compound 122]	100 to 1000
Cc1ccc(Nc2cccc3c2CCN(C2CCS(=O)(=O)C2)C3)cc1-c1cc2ccccc2cn1 (stereo not drawn) [Compound 324]	0.001 to 1
Cc1ccc(Nc2cccc3c2CCN(S(C)(=O)=O)C3)cc1-c1ncc(Cl)cc1F [Compound 290]	0.001 to 1
Clc1ccc(Nc2cccc3c2CCN(Cc2nn[nH]n2)C3)cc1-c1ncc(-c2ccccc2)[nH]1 [Compound 86]	1 to 10
Cc1ccc(Nc2cccc3c2CCN(S(C)(=O)=O)C3)cc1-c1ncc(-c2cccnc2)[nH]1 [Compound 60]	0.001 to 1
Cc1ccc(Nc2nccc3c2CCN(S(C)(=O)=O)C3)cc1-c1ccc(F)cn1 [Compound 244]	100 to 1000
Cc1cnc(-c2cc(Nc3cccc4c3CCN(S(C)(=O)=O)C4)ccc2C)c(F)c1 [Compound 228]	0.001 to 1
Cc1ccc(Nc2cccc3c2CCN(S(C)(=O)=O)C3)cc1-c1ccc(C(=O)N(CCO)CCO)cc1 [Compound 147]	1000 to 10000
CC(=O)N1CCC(N2CCc3c(cccc3Nc3ccc(Cl)c(-c4ncc(-c5ccccc5)[nH]4)c3)C2)CC1 [Compound 11]	0.001 to 1
Cc1ccc(Nc2cccc3c2CCN(S(C)(=O)=O)C3)cc1-c1cc2ccccc2cn1 [Compound 229]	0.001 to 1
CC1(C(=O)N2CCc3c(cccc3Nc3ccc(Cl)c(-c4ncc(-c5ccccc5)[nH]4)c3)C2)CC1 [Compound 73]	0.001 to 1

Further lines, results first:

IC50 [nM]	Structure (SMILES)
0.001 to 1	Cc1ccc(-c2nc(Nc3cccc4c3CCN(S(C)(=O)=O)C4)ccc2Cl)nc1 [Compound 273]
1 to 10	Cc1ccc(Nc2cccc3c2CCN(S(C)(=O)=O)C3)cc1C(=O)Nc1ccc(OC(F)(F)F)cc1 [Compound 187]
0.001 to 1	CS(=O)(=O)N1CCc2c(ccnc2Nc2ccc(Cl)c(-c3ncc(-c4ccccc4)[nH]3)c2)C1 [Compound 133]
100 to 1000	Cc1ccc(Nc2cccc3c2CCN(S(C)(=O)=O)C3)cc1COc1ccccn1 [Compound 237]
10 to 100	Cc1ccc(Nc2cccc3c2CCN(S(C)(=O)=O)C3)cc1OCc1ccc(C#N)cc1 [Compound 166]
10 to 100	COc1cc2[nH]c(-c3cc(Nc4cccc5c4CCN(S(C)(=O)=O)C5)ccc3C)nc2cn1 [Compound 110]
1 to 10	CCOc1ccc(-c2cc(Nc3cccc4c3CCN(CCS(C)(=O)=O)C4)ccc2C)nn1 [Compound 294]
1 to 10	Cc1ccc(Nc2cccc3c2CCN(S(C)(=O)=O)C3)cc1-c1nc2ccccc2o1 [Compound 105]
0.001 to 1	C[S+]([O-])CC(=O)N1CCc2c(cccc2Nc2ccc(Cl)c(-c3ncc(-c4ccccc4)[nH]3)c2)C1 (stereo not drawn) [Compound 19]
10 to 100	Cc1ccc(Nc2cccc3c2CCN(S(C)(=O)=O)C3)cc1-c1nc2cnc(N(C)C)cc2[nH]1 [Compound 103]
1 to 10	Cc1ccc(Nc2cccc3c2CCN(S(C)(=O)=O)C3)cc1-c1ncc(F)cc1F [Compound 272]
1 to 10	Cc1ccc(Nc2cccc3c2CCN(S(C)(=O)=O)C3)cc1C(=O)Nc1ccccn1 [Compound 162]
100 to 1000	COc1ccc(Nc2cccc3c2CCN(S(C)(=O)=O)C3)cc1-c1ccc(C#N)cc1 [Compound 149]
100 to 1000	CN(C)Cc1ccc(Nc2cccc3c2CCN(S(C)(=O)=O)C3)cc1-c1ccc(C#N)cc1 [Compound 179]
100 to 1000	CS(=O)(=O)N1CCc2c(cccc2Nc2cc(-c3ccc(C#N)cc3)c(Cl)cn2)C1 [Compound 171]
10 to 100	CS(=O)(=O)N1CCc2c(cccc2Nc2cc(-c3nc4ccccc4[nH]3)c(Cl)cn2)C1 [Compound 126]

IC50 [nM]	Structure (SMILES)
0.001 to 1	Cc1ccc(Nc2cccc3c2CCN(C2CS(=O)(=O)C2)C3)cc1-c1ncc(F)cc1F [Compound 325]
1 to 10	Cc1ccc(Nc2cccc3c2CCN(C2(CO)CC2)C3)cc1-c1nc2ccccc2[nH]1 [Compound 89]
0.001 to 1	CC(O)C(=O)N1CCc2c(cccc2Nc2ccc(Cl)c(-c3ncc(-c4ccccc4)[nH]3)c2)C1 (stereo not drawn) [Compound 10]
100 to 1000	CC(=O)c1ccc(-c2cc(Nc3cccc4c3CCN(S(C)(=O)=O)C4)ccc2C)cc1 [Compound 114]
10 to 100	Cc1ccc(Nc2cccc3c2CCN(S(C)(=O)=O)C3)cc1OCc1ccccn1 [Compound 215]
0.001 to 1	COc1ccc(-c2cc(Nc3cccc4c3CCN(C3CCS(=O)(=O)C3)C4)ccc2C)nn1 (stereo not drawn) [Compound 256]
1 to 10	Cc1ccc(Nc2cccc3c2CCN(S(C)(=O)=O)C3)cc1-c1ccc(C#N)cn1 [Compound 154]
0.001 to 1	CCS(=O)(=O)CCN1CCc2c(cccc2Nc2ccc(C)c(-c3ccc(C)cn3)c2)C1 [Compound 261]
1000 to 10000	CNC(=O)c1cccc(-c2cc(Nc3cccc4c3CCN(S(C)(=O)=O)C4)ccc2C)c1 [Compound 135]
100 to 1000	Cc1ccc(Nc2cccc3c2CCN(S(C)(=O)=O)C3)cc1-c1ccc(Cn2cccn2)cc1 [Compound 118]
0.001 to 1	Cc1ccc(Nc2cccc3c2CCN(S(C)(=O)=O)C3)cc1C(=O)Nc1ccc(F)cc1 [Compound 185]
1 to 10	COc1cnc(-c2cc(Nc3cccc4c3CCN(CCS(C)(=O)=O)C4)ccc2C)cn1 [Compound 264]
1 to 10	Cc1ccc(-c2cc(Nc3ncnc4c3CCN(S(=O)(=O)C(C)C)C4)ccc2C)nc1 [Compound 292]
0.001 to 1	Cc1ccc(Nc2cccc3c2CCN(CCS(C)(=O)=O)C3)cc1-c1ccc(Cl)cn1 [Compound 257]
1 to 10	CCOc1cnc(-c2cc(Nc3cccc4c3CCN(CCS(C)(=O)=O)C4)ccc2C)cn1 [Compound 310]

Same assay, conditions: enzymatic and cellular assays for the inhibition of hedgehog signaling pathways; read-out: IC50 Ranges

IC50 [nM]	Structure (SMILES)
1 to 10	Cc1ccc(Nc2cccc3c2CCN([C@@H]2CCS(=O)(=O)C2)C3)cc1-c1ncccc1F [Compound 287]
0.001 to 1	Cc1ccc(Nc2cccc3c2CCN(S(C)(=O)=O)C3)cc1-c1ccc(C(F)(F)F)cn1 [Compound 153]
